Assay results as given in patent US10584134B2, “Use of physiological cooling active ingredients, and agents containing such active ingredients” (SYMRISE AG, priority 2009, dated 2020).
pEC50: −log10 of the molar value.

Tests used:
human TRPM8 receptor = human TRPM8 receptor (Homo sapiens (Human), UniProt Q7Z2W7); test: Assay on TRPM8 modulators (Ca2+-sensitive dye, HEK293-TRPM8 test cells, EC50 determination); format: cell-based; details: Table C, structure type 3; assay according to reference example 3
Chain of human TRPM8 receptor (Q7Z2W7 whole entry): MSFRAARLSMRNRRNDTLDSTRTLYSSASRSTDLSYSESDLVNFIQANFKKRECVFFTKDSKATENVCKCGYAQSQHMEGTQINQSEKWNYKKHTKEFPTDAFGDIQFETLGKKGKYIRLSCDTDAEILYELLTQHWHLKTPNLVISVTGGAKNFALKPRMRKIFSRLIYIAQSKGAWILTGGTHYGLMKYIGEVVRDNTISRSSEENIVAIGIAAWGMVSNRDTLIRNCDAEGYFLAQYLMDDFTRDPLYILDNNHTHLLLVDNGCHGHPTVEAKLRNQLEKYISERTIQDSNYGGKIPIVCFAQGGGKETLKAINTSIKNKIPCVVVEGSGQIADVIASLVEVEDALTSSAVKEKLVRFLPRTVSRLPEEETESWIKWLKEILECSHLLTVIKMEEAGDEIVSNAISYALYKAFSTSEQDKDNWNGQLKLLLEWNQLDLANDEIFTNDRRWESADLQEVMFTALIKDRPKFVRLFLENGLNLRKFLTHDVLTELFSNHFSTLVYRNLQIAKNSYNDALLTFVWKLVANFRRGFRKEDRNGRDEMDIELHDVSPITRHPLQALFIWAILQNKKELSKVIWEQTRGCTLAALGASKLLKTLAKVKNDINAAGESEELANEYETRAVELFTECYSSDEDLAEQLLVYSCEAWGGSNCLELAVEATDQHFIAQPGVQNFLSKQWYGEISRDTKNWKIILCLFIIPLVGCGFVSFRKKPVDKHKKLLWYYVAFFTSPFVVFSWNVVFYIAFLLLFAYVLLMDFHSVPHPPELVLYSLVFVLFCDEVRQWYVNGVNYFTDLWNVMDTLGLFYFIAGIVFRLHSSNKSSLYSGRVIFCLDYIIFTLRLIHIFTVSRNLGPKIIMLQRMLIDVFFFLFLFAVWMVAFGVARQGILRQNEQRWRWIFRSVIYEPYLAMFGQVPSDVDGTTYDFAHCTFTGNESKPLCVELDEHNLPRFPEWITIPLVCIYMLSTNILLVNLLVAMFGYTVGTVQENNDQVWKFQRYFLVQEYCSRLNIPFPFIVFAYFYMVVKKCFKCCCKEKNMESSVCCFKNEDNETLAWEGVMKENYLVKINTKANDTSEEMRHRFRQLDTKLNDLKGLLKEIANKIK
Excerpt: As a test cell system the human TRPM8 DNA (see plasmid pInd-M8 above) was used to prepare a stable transfixed HEK293 cell line. Here preference is for HEK293 which via the plasmid introduced offers the possibility of induction of the TRPM8 expression by means of tetracycline.
The agonisation or antagonisation of the receptor can be quantified by means of a Ca^2+-sensitive dye (e.g. FURA, Fluo-4, etc.).
To begin with, in a manner known per se, in cell culture flasks a fresh culture of transformed HEK cells is prepared. The HEK293-TRPM8 test cells are removed using trypsin from the cell culture flasks and 40 000 cells/well are sown with 100 μl medium in 96-well plates (Greiner #655948 Poly-D-lysine coated). In order to induce the TRPM8 receptor the growth medium tetracycline is mixed in (DMEM/HG, 10% FCS tetracycline-free, 4 mM L-glutamine, 15 μg/ml blasticidin, 100 μg/ml hygromycin B, 1 μg/ml tetracycline). The next day the cells are charged with Fluo-4Am dye and the test is performed.
The test substances are used in triplicate in concentrations of between 0.1 and 200 μm in the assay. Normally the compounds are kept ready in DMSO solutions and diluted for the assay to a maximum DMSO concentration of 2%.

[1] = cited from earlier work; for cooling action: J. Soc. Cosmet. Chem. 1978, 29, 185-200, study of approximately 1200 compounds
[2] = system: panel of sensorially trained experts; test: Sensorial assessment of toothpastes containing the flavourings (Examples S-1 to S-4); format: in vivo, human; details: flavouring 1.2 wt. % in toothpaste base, usage conditions
Description: The flavourings obtained in this way were worked into a standard silica toothpaste base in a concentration of 1.2 wt. %. The toothpastes were tested by a panel of sensorially trained experts under usage conditions. The sensorial assessments were as follows: very pleasant, rich and voluminous minty freshness with a comparatively fast onset, strong and marked and comparatively very long-lasting cooling fresh impression, wherein it was noticeable that the sensation of coldness was rapidly perceptible in the whole of the oral cavity. Additionally the flavour was assessed as being softer and more neutral and less sharp than without the compounds according to the invention.
The flavourings in a concentration of 1.2% were worked into a toothpaste base comprising an amount of 65% of sodium bicarbonate. The toothpastes were tested under usage conditions and assessed by a panel of sensorially trained experts. In each case a pleasant, powerful spearmint flavour in combination with a voluminous and long-lasting fresh taste was noted.
The flavourings obtained in this way were in each case worked into a standard silica toothpaste base in a concentration of 1.2 wt. %. The toothpastes were tested by a panel of sensorially trained experts under usage conditions. […]

O=C(/C=C/c1ccc2c(c1)OCO2)N(c1ccccn1)C1CCCCC1 [Compound 3-1, (E)-3-benzo[1,3]dioxol-5-yl-N-cyclohexyl-N-pyridin-2-yl-acrylamide]
pEC50 (human TRPM8 receptor): 7.00

O=C(/C=C/c1ccc2c(c1)OCO2)N(C1CCCCC1)C1CCCCC1 [Compound 3-2]
pEC50 (human TRPM8 receptor): 4.93

O=C(/C=C/c1ccc2c(c1)OCO2)N(c1ccccc1)C1CCCCC1 [Compound 3-3]
pEC50 (human TRPM8 receptor): 6.05

CCN(C(=O)/C=C/c1ccc2c(c1)OCO2)C1CCCCC1 [Compound 3-4]
pEC50 (human TRPM8 receptor): 6.10

CC(C)N(C(=O)/C=C/c1ccc2c(c1)OCO2)C1CCCCC1 [Compound 3-5, (E)-3-benzo[1,3]dioxol-5-yl-N-cyclohexyl-N-isopropyl-acrylamide]
pEC50 (human TRPM8 receptor): 6.70

O=C(/C=C/c1ccc2c(c1)OCO2)N(c1ccccc1)c1ccccc1 [Compound 3-6, (E)-3-benzo[1,3]dioxol-5-yl-N,N-diphenyl-acrylamide]
pEC50 (human TRPM8 receptor): 6.10

CCCN(C(=O)/C=C/c1ccc2c(c1)OCO2)c1ccccc1 [Compound 3-7]
pEC50 (human TRPM8 receptor): 5.96

CC(C)N(C(=O)/C=C/c1ccc2c(c1)OCO2)c1ccccc1 [Compound 3-8]
pEC50 (human TRPM8 receptor): 6.22

CCCCN(C(=O)/C=C/c1ccc2c(c1)OCO2)c1ccccc1 [Compound 3-9]
pEC50 (human TRPM8 receptor): 6.15

O=C(/C=C/c1ccc2c(c1)OCO2)N(Cc1ccccc1)c1ccccc1 [Compound 3-10]
pEC50 (human TRPM8 receptor): 5.92

CCN(C(=O)/C=C/c1ccc2c(c1)OCO2)c1ccccn1 [Compound 3-11]
pEC50 (human TRPM8 receptor): 5.21

O=C(/C=C/c1ccc2c(c1)OCO2)N(Cc1ccccc1)c1ccccn1 [Compound 3-12]
pEC50 (human TRPM8 receptor): 6.15

CC(C)N(Cc1ccccc1)C(=O)/C=C/c1ccc2c(c1)OCO2 [Compound 3-13]
pEC50 (human TRPM8 receptor): 5.41

CCN(Cc1ccccc1)C(=O)/C=C/c1ccc2c(c1)OCO2 [Compound 3-14]
pEC50 (human TRPM8 receptor): 5.82

CCN(CC)C(=O)/C=C/c1ccc2c(c1)OCO2 [Compound 3-15]
pEC50 (human TRPM8 receptor): 4.91

CC(C)CN(C(=O)/C=C/c1ccc2c(c1)OCO2)c1ccc(Cl)cc1 [Compound 3-16]
pEC50 (human TRPM8 receptor): 5.09

COc1ccc(/C=C/C(=O)N(c2ccccn2)C2CCCCC2)cc1 [Compound 3-17, 4-methoxycinammic acid-N-cyclohexyl-N-2-pyridylamide]
pEC50 (human TRPM8 receptor): 6.40

COc1ccc(/C=C/C(=O)N(C2CCCCC2)C2CCCCC2)cc1 [Compound 3-18, (E)-N,N-dicyclohexyl-3-(4-methoxy-phenyl)-acrylamide]
pEC50 (human TRPM8 receptor): 7.00

COc1ccc(/C=C/C(=O)N(c2ccccc2)C2CCCCC2)cc1 [Compound 3-19]
pEC50 (human TRPM8 receptor): 6.15

COc1ccc(/C=C/C(=O)N(c2ccccc2)c2ccccc2)cc1 [Compound 3-20, 4-methoxycinammic acid-N,N-diphenylamide]
pEC50 (human TRPM8 receptor): 5.96

CCCN(C(=O)/C=C/c1ccc(OC)cc1)c1ccccc1 [Compound 3-21]
pEC50 (human TRPM8 receptor): 5.77

COc1ccc(/C=C/C(=O)N(c2ccccc2)C(C)C)cc1 [Compound 3-22]
pEC50 (human TRPM8 receptor): 5.89

COc1ccc(/C=C/C(=O)N(Cc2ccccc2)c2ccccc2)cc1 [Compound 3-23]
pEC50 (human TRPM8 receptor): 5.49

COc1ccc(/C=C/C(=O)N(Cc2ccccc2)c2ccccn2)cc1 [Compound 3-24]
pEC50 (human TRPM8 receptor): 5.66

O=C(/C=C/c1ccccc1)N(c1ccccn1)C1CCCCC1 [Compound 3-25, Cinammic acid-N-cyclohexyl-N-2-pyridylamide]
pEC50 (human TRPM8 receptor): 5.64

O=C(/C=C/c1ccccc1)N(c1ccccc1)C1CCCCC1 [Compound 3-26, (E)-N-cyclohexyl-3,N-diphenyl-acrylamide]
pEC50 (human TRPM8 receptor): 6.22

O=C(/C=C/c1ccccc1)N(c1ccccc1)c1ccccc1 [Compound 3-27, Cinammic acid-N,N-diphenylamide]
pEC50 (human TRPM8 receptor): 5.54

O=C(/C=C/c1ccccc1)N(Cc1ccccc1)c1ccccc1 [Compound 3-28]
pEC50 (human TRPM8 receptor): 5.62

CC(C1CC1)N(C(=O)/C=C/c1ccccc1)c1ccccc1 (centres unmarked) [Compound 3-29]
pEC50 (human TRPM8 receptor): 6.10

Cc1ccccc1/C=C/C(=O)N(c1ccccn1)C1CCCCC1 [Compound 3-30]
pEC50 (human TRPM8 receptor): 6.40

Cc1cccc(/C=C/C(=O)N(c2ccccn2)C2CCCCC2)c1 [Compound 3-31, (E)-N-cyclohexyl-N-pyridin-2-yl-3-m-tolyl-acrylamide]
pEC50 (human TRPM8 receptor): 6.52

Cc1ccc(/C=C/C(=O)N(c2ccccn2)C2CCCCC2)cc1 [Compound 3-32, (E)-N-cyclohexyl-N-pyridin-2-yl-3-p-tolyl-acrylamide]
pEC50 (human TRPM8 receptor): 6.52

Cc1ccc(/C=C/C(=O)N(C2CCCCC2)C2CCCCC2)cc1 [Compound 3-33]
pEC50 (human TRPM8 receptor): 5.68

Cc1ccc(/C=C/C(=O)N(c2ccccc2)c2ccccc2)cc1 [Compound 3-34, 4-methylcinammic acid-N,N-diphenylamide]
pEC50 (human TRPM8 receptor): 5.40

Cc1ccc(/C=C/C(=O)N(c2ccccc2)C(C)C)cc1 [Compound 3-36]
pEC50 (human TRPM8 receptor): 5.74

COc1cccc(/C=C/C(=O)N(c2ccccn2)C2CCCCC2)c1 [Compound 3-37]
pEC50 (human TRPM8 receptor): 5.52

COc1cccc(/C=C/C(=O)N(c2ccccn2)C2CCCCC2)c1OC [Compound 3-38]
pEC50 (human TRPM8 receptor): 6.15

COc1cccc(/C=C/C(=O)N(c2ccccc2)C2CCCCC2)c1OC [Compound 3-39]
pEC50 (human TRPM8 receptor): 5.59

COc1cccc(/C=C/C(=O)N(c2ccccc2)c2ccccc2)c1OC [Compound 3-40]
pEC50 (human TRPM8 receptor): 5.23

O=C(/C=C/c1ccccc1Cl)N(c1ccccn1)C1CCCCC1 [Compound 3-41]
pEC50 (human TRPM8 receptor): 6.15

COc1ccc(CCC(=O)N(c2ccccn2)C2CCCCC2)cc1 [Compound 3-42]
pEC50 (human TRPM8 receptor): 5.48

O=C(CCc1ccc2c(c1)OCO2)N(c1ccccc1)c1ccccc1 [Compound 3-43]
pEC50 (human TRPM8 receptor): 5.17

O=C(COc1ccc2c(c1)OCO2)N(c1ccccc1)C1CCCCC1 [Compound 3-44]
pEC50 (human TRPM8 receptor): 6.00

COc1ccc(OCC(=O)N(c2ccccn2)C2CCCCC2)cc1 [Compound 3-45]
pEC50 (human TRPM8 receptor): 5.40

O=C(COc1ccccc1)N(c1nccs1)C1CCCCC1 [Compound 3-46]
pEC50 (human TRPM8 receptor): 5.52

Cc1ccccc1N(Cc1ccccc1)C(=O)Cc1ccccc1 [Compound 3-47]
pEC50 (human TRPM8 receptor): 5.77

COc1ccc(C(=O)N(c2ccccn2)C2CCCCC2)cc1 [Compound 3-48]
pEC50 (human TRPM8 receptor): 4.96

O=C(c1c(Cl)cccc1Cl)N(Cc1ccccc1)c1ccccn1 [Compound 3-49]
pEC50 (human TRPM8 receptor): 5.26

CC1CCC(C(C)C)C(C(=O)NCC(=O)O)C1 [N^α-(L-menthanecarbonyl)glycine]
cooling action [1]: very weak cooling action

CCOC(=O)CNC(=O)C1CC(C)CCC1C(C)C (centres unmarked) [WS5, N-[[5-methyl-2-(1-methylethyl)cyclohexyl]carbonyl]glycine ethyl ester]
cooling action [1]: most strongly cooling active ingredients | irritancy ([1]; US 2005/0222256): strongly irritant

CCNC(=O)C1CC(C)CCC1C(C)C (centres unmarked) [WS-3, menthane-3-carboxylic acid-N-ethylamide]
sensorial assessment of cooling fresh impression [2]: less powerful, less voluminous and less long-lasting | cooling action [1]: most strongly cooling active ingredients
